Among the data in US20040038855A1 (priority 1999, published 2004) are Ki values, retold here.

One may read the Ki as a dissociation constant, usually derived from enzyme kinetics or from competition with a known ligand.

In one experiment the target is T1, human NPY5 receptor (Homo sapiens, UniProt Q15761).
T1 construct: expressed in transfected cells
T1 sequence (Q15761 1-445): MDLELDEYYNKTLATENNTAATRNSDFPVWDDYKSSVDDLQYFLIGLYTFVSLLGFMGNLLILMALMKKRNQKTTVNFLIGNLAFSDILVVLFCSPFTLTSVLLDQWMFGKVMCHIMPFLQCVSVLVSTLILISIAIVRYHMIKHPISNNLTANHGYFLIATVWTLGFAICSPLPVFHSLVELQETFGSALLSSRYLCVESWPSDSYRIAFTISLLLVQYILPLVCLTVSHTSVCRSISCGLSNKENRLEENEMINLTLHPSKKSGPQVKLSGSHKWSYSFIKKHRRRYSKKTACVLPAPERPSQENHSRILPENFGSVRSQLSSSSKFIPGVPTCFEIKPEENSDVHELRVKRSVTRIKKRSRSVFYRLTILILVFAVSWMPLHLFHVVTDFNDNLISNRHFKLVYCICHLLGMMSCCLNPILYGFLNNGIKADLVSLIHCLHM
Nature of the experiment: Binding affinity at the human NPY5 receptor. Particulars: Table 3a; read-out: hNPY5 Ki. The text has this: (§1) The design of such compounds can be optimized by determining their binding affinity at the recombinant MCH1, NPY1, NPY2, Gal1, Gal2, Gal3, and 5HT2C receptors. The methods to obtain the cDNA of the receptor, express said receptors in heterologous systems, and carry out assays to determine binding affinity are described in the following publications: human NPY1 (Larhammar et al., 1992), human NPY5 (U.S. Pat. No. 5,602,024, the disclosure of which is hereby incorporated by reference in its entirety into this application), human Gall (Habert-Ortoli et al., 1994), human Gal2 (Smith et al., 1997), human Gal3 (Smith et al., 1998), and rat 5HT2C (Julius et al., 1988). Additionally, the compounds would optimally not bind at the following receptors due to possible side effects: human H1 histamine and human H2 histamine receptors; human alpha-1A adrenergic, human alpha-1D adrenergic, human alpha-2A adrenergic, human alpha-2B adrenergic, and human alpha-2C adrenergic receptors; human dopamine D1, D2, D3, D4, and D5 receptors; the β-adrenoceptor; and the human 5HT1A, human 5HT1B, human 5HT1D, human 5HT1E, human 5HT1F, human 5HT2A, rat 5HT2C, human 5HT4, human 5HT6, and human 5HT7 receptors.
On to `CCN1c2ccc(/C=C3\SC(=S)NC3=O)cc2C(C)=CC1(C)C` [Example 25], for which the Ki was more than 50 µM.

As for `O=C(CCCN1CCC(NC(=O)c2ccccc2)CC1)c1ccc(Cl)cc1` [Example 28, [3-(4-CHLOROBENZOYL)]PROPYL-4-BENZAMIDOPIPERIDINE], the Ki is more than 50 µM.

Turning to `CN1CN(c2ccccc2)C2(CCN(CCCC(=O)c3ccc(F)cc3)CC2)C1=O` [Example 30, N-METHYL-8-[4-(4-FLUOROPHENYL)-4-OXOBUTYL]-1-PHENYL-1,3,8-TRI-[4.5]DECAN-4-ONE], the Ki is more than 50 µM.

On to `Cc1cc(O)cc(O)c1/C=N/c1ccc(-c2cn3ccccc3n2)cc1` [Example 27], for which the Ki is more than 50 µM.

Consider `Fc1ccc(C(c2ccc(F)cc2)N2CCN(C/C=C/c3ccccc3)CC2)cc1` [Example 26, 1-[BIS(4-FLUOROPHENYL)METHYL]-4-(3-PHENYL-2-PROPENYL)PIPERAZINE], for which the inhibitory constant (Ki) is more than 50 µM.

The target of another experiment is T2, rat 5HT2C receptor (Rattus norvegicus, UniProt P08909).
T2 construct: expressed in transfected cells
T2 sequence (P08909 33-460): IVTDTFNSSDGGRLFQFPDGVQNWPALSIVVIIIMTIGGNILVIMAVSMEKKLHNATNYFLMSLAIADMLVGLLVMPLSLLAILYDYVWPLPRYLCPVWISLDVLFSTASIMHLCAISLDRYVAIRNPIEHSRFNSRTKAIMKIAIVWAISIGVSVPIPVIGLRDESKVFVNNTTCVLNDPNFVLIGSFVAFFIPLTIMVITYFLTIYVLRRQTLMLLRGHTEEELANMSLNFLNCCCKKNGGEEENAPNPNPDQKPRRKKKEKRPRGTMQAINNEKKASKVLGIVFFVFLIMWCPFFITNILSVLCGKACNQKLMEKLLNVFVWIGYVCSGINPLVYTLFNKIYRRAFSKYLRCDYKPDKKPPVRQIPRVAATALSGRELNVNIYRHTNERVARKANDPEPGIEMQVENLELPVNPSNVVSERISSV
In words: Binding affinity at the rat 5HT2C receptor. Conditions: Table 3a; read-out: r5HT2C Ki.
Excerpt: as §1
Other 5HT Receptors: Other serotonin receptor binding assays were performed according to published methods: rat 5HT2C receptor (Julius et al., 1988); and 5HT6 (Monsma, et al., 1993). The binding assays using the 5HT4 receptor were performed according to the procedures described in U.S. Pat. No. 5,766,879, the disclosure of which is hereby incorporated by reference in its entirety into this application.
For `CCN1c2ccc(/C=C3\SC(=S)NC3=O)cc2C(C)=CC1(C)C` [Example 25], the Ki stood at 41 µM.

On to `O=C(CCCN1CCC(NC(=O)c2ccccc2)CC1)c1ccc(Cl)cc1` [Example 28, [3-(4-CHLOROBENZOYL)]PROPYL-4-BENZAMIDOPIPERIDINE], for which the Ki was 34.1 µM.

As to `CN1CN(c2ccccc2)C2(CCN(CCCC(=O)c3ccc(F)cc3)CC2)C1=O` [Example 30, N-METHYL-8-[4-(4-FLUOROPHENYL)-4-OXOBUTYL]-1-PHENYL-1,3,8-TRI-[4.5]DECAN-4-ONE], the inhibitory constant (Ki) amounted to 8.86 µM.

Turning to `Cc1cc(O)cc(O)c1/C=N/c1ccc(-c2cn3ccccc3n2)cc1` [Example 27], the Ki is more than 50 µM.

The target in another experiment is T3, human GALR3 receptor (Homo sapiens, UniProt O60755).
T3 construct: expressed in transfected cells
T3 sequence (O60755 1-368): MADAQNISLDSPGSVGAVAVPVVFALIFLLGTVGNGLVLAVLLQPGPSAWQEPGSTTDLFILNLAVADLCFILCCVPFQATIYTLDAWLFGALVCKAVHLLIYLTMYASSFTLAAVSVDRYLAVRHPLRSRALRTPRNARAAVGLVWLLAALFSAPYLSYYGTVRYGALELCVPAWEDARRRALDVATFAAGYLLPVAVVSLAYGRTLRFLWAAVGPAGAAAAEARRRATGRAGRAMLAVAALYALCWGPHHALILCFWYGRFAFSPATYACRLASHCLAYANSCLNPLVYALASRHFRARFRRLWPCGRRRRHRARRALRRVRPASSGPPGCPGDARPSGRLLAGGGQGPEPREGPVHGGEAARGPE
Nature of the experiment: Binding affinity at the human GALR3 receptor. Particulars: Table 3a; read-out: hGALR3 Ki.
Excerpt: as §1
`CCN1c2ccc(/C=C3\SC(=S)NC3=O)cc2C(C)=CC1(C)C` [Example 25]: the Ki was more than 50 µM.

As for `O=C(CCCN1CCC(NC(=O)c2ccccc2)CC1)c1ccc(Cl)cc1` [Example 28, [3-(4-CHLOROBENZOYL)]PROPYL-4-BENZAMIDOPIPERIDINE], the Ki is more than 50 µM.

Turning to `CN1CN(c2ccccc2)C2(CCN(CCCC(=O)c3ccc(F)cc3)CC2)C1=O` [Example 30, N-METHYL-8-[4-(4-FLUOROPHENYL)-4-OXOBUTYL]-1-PHENYL-1,3,8-TRI-[4.5]DECAN-4-ONE], the inhibition constant (Ki) was more than 50 µM.

Turning to `Cc1cc(O)cc(O)c1/C=N/c1ccc(-c2cn3ccccc3n2)cc1` [Example 27], the Ki is more than 50 µM.

`Fc1ccc(C(c2ccc(F)cc2)N2CCN(C/C=C/c3ccccc3)CC2)cc1` [Example 26, 1-[BIS(4-FLUOROPHENYL)METHYL]-4-(3-PHENYL-2-PROPENYL)PIPERAZINE]: the Ki is more than 50 µM.

The target of a further experiment is T4, human GALR2 receptor (Homo sapiens, UniProt O43603).
T4 construct: expressed in transfected cells
T4 sequence (O43603 1-387): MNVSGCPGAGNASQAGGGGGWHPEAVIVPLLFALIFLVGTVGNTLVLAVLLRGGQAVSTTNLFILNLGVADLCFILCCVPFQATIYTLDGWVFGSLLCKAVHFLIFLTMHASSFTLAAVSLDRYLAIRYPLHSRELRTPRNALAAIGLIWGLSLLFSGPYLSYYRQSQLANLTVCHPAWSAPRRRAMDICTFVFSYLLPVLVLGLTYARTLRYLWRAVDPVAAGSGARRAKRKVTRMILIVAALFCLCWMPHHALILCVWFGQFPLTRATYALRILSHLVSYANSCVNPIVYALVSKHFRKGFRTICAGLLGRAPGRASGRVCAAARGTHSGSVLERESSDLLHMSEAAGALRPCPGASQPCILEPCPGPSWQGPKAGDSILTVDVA
In words: Binding affinity at the human GALR2 receptor. Conditions: Table 3a; read-out: hGALR2 Ki.
Excerpt: as §1
For the compound `CCN1c2ccc(/C=C3\SC(=S)NC3=O)cc2C(C)=CC1(C)C` [Example 25], the Ki was more than 50 µM.

Take `O=C(CCCN1CCC(NC(=O)c2ccccc2)CC1)c1ccc(Cl)cc1` [Example 28, [3-(4-CHLOROBENZOYL)]PROPYL-4-BENZAMIDOPIPERIDINE]: the Ki is more than 50 µM.

Turning to `CN1CN(c2ccccc2)C2(CCN(CCCC(=O)c3ccc(F)cc3)CC2)C1=O` [Example 30, N-METHYL-8-[4-(4-FLUOROPHENYL)-4-OXOBUTYL]-1-PHENYL-1,3,8-TRI-[4.5]DECAN-4-ONE], the Ki is more than 50 µM.

As to `Cc1cc(O)cc(O)c1/C=N/c1ccc(-c2cn3ccccc3n2)cc1` [Example 27], the Ki was more than 50 µM.

For the compound `Fc1ccc(C(c2ccc(F)cc2)N2CCN(C/C=C/c3ccccc3)CC2)cc1` [Example 26, 1-[BIS(4-FLUOROPHENYL)METHYL]-4-(3-PHENYL-2-PROPENYL)PIPERAZINE], the Ki was more than 50 µM.

The target in another experiment is T5, human GALR1 receptor (Homo sapiens, UniProt P47211).
T5 construct: expressed in transfected cells
T5 sequence (P47211 1-349): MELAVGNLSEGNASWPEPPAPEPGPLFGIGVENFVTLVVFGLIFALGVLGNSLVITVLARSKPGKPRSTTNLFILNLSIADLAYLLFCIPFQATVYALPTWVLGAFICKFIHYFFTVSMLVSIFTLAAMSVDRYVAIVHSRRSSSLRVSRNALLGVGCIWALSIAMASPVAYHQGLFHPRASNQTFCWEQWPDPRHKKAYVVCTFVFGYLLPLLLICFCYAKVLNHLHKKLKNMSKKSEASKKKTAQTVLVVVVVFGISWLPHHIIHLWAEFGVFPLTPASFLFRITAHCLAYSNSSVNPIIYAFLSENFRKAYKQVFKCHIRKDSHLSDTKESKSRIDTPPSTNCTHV
In words: Binding affinity at the human GALR1 receptor. Particulars: Table 3a; read-out: hGALR1 Ki.
Excerpt: as §1
On to `CCN1c2ccc(/C=C3\SC(=S)NC3=O)cc2C(C)=CC1(C)C` [Example 25], for which the Ki was more than 50 µM.

For `O=C(CCCN1CCC(NC(=O)c2ccccc2)CC1)c1ccc(Cl)cc1` [Example 28, [3-(4-CHLOROBENZOYL)]PROPYL-4-BENZAMIDOPIPERIDINE], the Ki was more than 50 µM.

Regarding `CN1CN(c2ccccc2)C2(CCN(CCCC(=O)c3ccc(F)cc3)CC2)C1=O` [Example 30, N-METHYL-8-[4-(4-FLUOROPHENYL)-4-OXOBUTYL]-1-PHENYL-1,3,8-TRI-[4.5]DECAN-4-ONE], the Ki is more than 50 µM.

Take `Cc1cc(O)cc(O)c1/C=N/c1ccc(-c2cn3ccccc3n2)cc1` [Example 27]: the Ki was more than 50 µM.

In the case of `Fc1ccc(C(c2ccc(F)cc2)N2CCN(C/C=C/c3ccccc3)CC2)cc1` [Example 26, 1-[BIS(4-FLUOROPHENYL)METHYL]-4-(3-PHENYL-2-PROPENYL)PIPERAZINE], the Ki is more than 50 µM.

A further experiment has as its target T6, human NPY1 receptor (Homo sapiens, UniProt P25929).
T6 construct: expressed in transfected cells
T6 sequence (P25929 1-384): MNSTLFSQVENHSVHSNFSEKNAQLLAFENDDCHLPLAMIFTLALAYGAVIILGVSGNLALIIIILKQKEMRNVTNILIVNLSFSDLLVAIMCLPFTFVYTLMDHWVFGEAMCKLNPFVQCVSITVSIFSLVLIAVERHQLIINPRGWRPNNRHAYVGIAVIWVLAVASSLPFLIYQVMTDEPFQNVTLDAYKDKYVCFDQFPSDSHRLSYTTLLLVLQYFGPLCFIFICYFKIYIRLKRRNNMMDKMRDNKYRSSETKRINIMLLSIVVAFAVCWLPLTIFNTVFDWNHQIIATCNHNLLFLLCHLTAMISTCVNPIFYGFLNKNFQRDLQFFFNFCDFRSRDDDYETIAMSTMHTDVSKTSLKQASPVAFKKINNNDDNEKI
Nature of the experiment: Binding affinity at the human NPY1 receptor. Particulars: Table 3a; read-out: hMPY1 Ki.
Excerpt: as §1
For the compound `CN1CN(c2ccccc2)C2(CCN(CCCC(=O)c3ccc(F)cc3)CC2)C1=O` [Example 30, N-METHYL-8-[4-(4-FLUOROPHENYL)-4-OXOBUTYL]-1-PHENYL-1,3,8-TRI-[4.5]DECAN-4-ONE], the inhibition constant (Ki) was more than 50 µM.

As to `Cc1cc(O)cc(O)c1/C=N/c1ccc(-c2cn3ccccc3n2)cc1` [Example 27], the inhibitory constant (Ki) is more than 50 µM.

For `Fc1ccc(C(c2ccc(F)cc2)N2CCN(C/C=C/c3ccccc3)CC2)cc1` [Example 26, 1-[BIS(4-FLUOROPHENYL)METHYL]-4-(3-PHENYL-2-PROPENYL)PIPERAZINE], the Ki is more than 50 µM.
